Test results published in patent US20050096297A1, “Antibacterial agents” (priority 2003, published 2005).
≈ marks a conversion by molar mass, not a printed value.

Experiments:
Test in all cases: Test A antibacterial assay, MIC by microtitration
Type in all cases: cell-based
[1] = test system: E. coli EC-2549; conditions: Escherichia coli, EC2549; Gram Negative Bacteria; strain EC-2549; read-out: Minimum Inhibitory Concentrations E. coli EC-2549
Experimental: (§1) Test A—Antibacterial Assays
(§2) The compounds of the present invention were tested against an assortment of Gram-negative and Gram-positive organisms using standard microtitration techniques (Cohen et. al., Antimicrob., 1985;28:766; Heifetz, et. al., Antimicrob., 1974;6:124).

[2] = test system: H. influenzae HI-3542; conditions: Haemophilus influenzae, HI3542; Gram Negative Bacteria; strain HI-3542; read-out: Minimum Inhibitory Concentrations H. influenzae HI-3542
Experimental: as §1, §2

[3] = test system: M. catarrhalis BC-3531; conditions: Moraxella catarrhalis, BC3531; Gram Negative Bacteria; strain BC-3531; read-out: Minimum Inhibitory Concentrations M. catarrhalis BC-3531
Experimental: as §1, §2

[4] = test system: E. faecalis MGH-2; conditions: Enterococcus faecalis, MGH2; Gram Positive Bacteria; strain MGH-2; read-out: Minimum Inhibitory Concentrations E. faecalis MGH-2
Experimental: as §1, §2

[5] = test system: S pyogenes C203; conditions: Gram Positive Bacteria; strain C203; read-out: Minimum Inhibitory Concentrations S pyogenes C203
Experimental: as §1, §2

[6] = test system: S. aureus UC-76; conditions: Staphylococcus aureus, UC76; Gram Positive Bacteria; strain UC-76; read-out: Minimum Inhibitory Concentrations S. aureus UC-76
Experimental: as §1, §2

In the case of `Cc1c(N2CC(O)(C(F)(F)F)C2)c(F)cc2c(=O)c(C(=O)O)cn(C3CC3)c12`, the MIC [1] is reported as 0.0004 µg/mL (≈ 0.000999 µM), the MIC [2] is reported as 0.03 µg/mL (≈ 0.0749 µM) and the MIC [3] is reported as 0.06 µg/mL (≈ 0.15 µM).
Molecule `Cc1c(N2CC(CCO)C2)c(F)cc2c(=O)c(C(=O)O)cn(C3CC3)c12` [drawing 130] has an MIC [1] of 0.002 µg/mL (≈ 0.00555 µM), an MIC [2] of 0.008 µg/mL (≈ 0.0222 µM) and an MIC [3] of 0.015 µg/mL (≈ 0.0416 µM).
Work on `O=C(O)c1cn(C2CC2)c2c(Cl)c(N3CC(O)(C4CC4)C3)c(F)cc2c1=O` [drawing 132] yielded an MIC [1] of 0.002 µg/mL (≈ 0.00509 µM), an MIC [2] of 0.03 µg/mL (≈ 0.0764 µM) and an MIC [3] of 0.03 µg/mL (≈ 0.0764 µM).
With `Cc1c(N2CC(CCO)C2)c(F)cc2c(=O)c(C(=O)O)cn(C3CC3)c12` [drawing 133] the MIC [4] was 0.25 µg/mL (≈ 0.694 µM), the MIC [5] was 0.25 µg/mL (≈ 0.694 µM) and the MIC [6] was 0.03 µg/mL (≈ 0.0832 µM).
Molecule `O=C(O)c1cn(C2CC2)c2c(Cl)c(N3CC(O)(C4CC4)C3)c(F)cc2c1=O` [drawing 135] has an MIC [4] of 0.5 µg/mL (≈ 1.27 µM), an MIC [5] of 0.5 µg/mL (≈ 1.27 µM) and an MIC [6] of 0.03 µg/mL (≈ 0.0764 µM).
